Measurements: patent US12678418B2, “Compositions and methods for the treatment of threatened respiratory failure caused by coronavirus infection and disease” (ENCYT TECHNOLOGIES, INC., priority 2020, dated 2026)
pIC50: −log10 of the molar value. “Also recorded” adds a separate entry of the source. Read-outs that look alike come from different tables or passages of the source. Ends that are not written are not given here.

Legend:
[1] = target: T1, Neu1 sialidase (Mus musculus, UniProt O35657); conditions: cited from earlier work; for inhibition of the LPS-induced sialidase activity: live BMC-2 macrophage cells
T1 construct: […]; endogenous in cells; host or cells: BMC-2 macrophage cells

[2] = target: T1, Neu1 sialidase; format: cell-based; conditions: for inhibition of lipopolysaccharide (LPS) induced sialidase activity: live BMC-2 macrophage cells, 1-2 mM, compared to LPS positive control; for inhibition of sialidase (Neu1) activity associated with TLR ligand treated live macrophage cells: cell surface of macrophage and dendritic cells
From the text: Central to this process is that Neu1 and not Neu2,-3 and -4 forms a complex with TLR-2,-3 and -4 on the cell surface of naïve macrophage cells. […] Endotoxin LPS binding to TLR4 induces Neu1 with subsequent activation of NFκB and the production of nitric oxide and proinflammatory IL-6 and TNFα cytokines in primary and macrophage cell lines.

[3] = test system: Neu1 sialidase; assay: Sialidase activity in live RAW-blue macrophage cells, 4-MUNANA substrate (Example 1); format: cell-based, mouse; conditions: for inhibition of sialidase activity associated with S-protein: FIG. 2B; for inhibition of sialidase activity associated with S-protein / inhibition of sialidase activity associated with S-protein (UK variant): inhibitor 200 μg/mL, 0.318 mM 4-MUNANA; for inhibition of sialidase activity associated with S-protein (UK variant): FIG. 2C
[4] = target: MMP3 (Homo sapiens, UniProt P08254); conditions: cited from earlier work
Chain of MMP3 (P08254 100-477, species assumed): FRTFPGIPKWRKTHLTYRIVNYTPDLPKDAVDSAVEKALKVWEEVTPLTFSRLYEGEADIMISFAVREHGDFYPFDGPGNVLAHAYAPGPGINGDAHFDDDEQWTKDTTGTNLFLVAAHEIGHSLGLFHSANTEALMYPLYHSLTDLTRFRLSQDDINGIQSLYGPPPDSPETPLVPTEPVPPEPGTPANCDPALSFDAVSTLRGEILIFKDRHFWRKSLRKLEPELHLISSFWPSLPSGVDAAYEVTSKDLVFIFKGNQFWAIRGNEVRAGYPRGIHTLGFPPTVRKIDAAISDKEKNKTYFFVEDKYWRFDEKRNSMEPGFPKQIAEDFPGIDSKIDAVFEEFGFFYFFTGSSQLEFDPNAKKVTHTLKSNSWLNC

[5] = target: MMP13 (Homo sapiens, UniProt P45452); conditions: cited from earlier work
[6] = target: T2, MMP1 (Homo sapiens, UniProt P03956); conditions: read-out: IC50 for MMP1; cited from earlier work
T2 sequence (P03956 100-469): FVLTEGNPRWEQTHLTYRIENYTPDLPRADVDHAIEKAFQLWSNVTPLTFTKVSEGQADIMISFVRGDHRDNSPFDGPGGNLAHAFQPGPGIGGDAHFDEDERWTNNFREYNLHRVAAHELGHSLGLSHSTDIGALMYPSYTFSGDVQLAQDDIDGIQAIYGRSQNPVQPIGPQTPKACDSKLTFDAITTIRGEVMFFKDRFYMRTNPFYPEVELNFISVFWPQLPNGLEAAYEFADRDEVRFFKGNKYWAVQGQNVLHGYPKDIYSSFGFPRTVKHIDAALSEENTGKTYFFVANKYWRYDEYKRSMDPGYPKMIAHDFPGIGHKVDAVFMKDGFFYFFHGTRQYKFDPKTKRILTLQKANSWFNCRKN

[7] = test system: NFκB activation, nitric oxide, IL-6 and TNFα in primary or macrophage cell lines; conditions: cited from earlier work
[8] = test system: SEAP gene inducible by NF-kB and AP-1 in RAW-Blue cells; assay: SEAP reporter assay in RAW-Blue cells (Example 2); format: cell-based, mouse; conditions: for expression of SEAP (reflective of NF-kB expression): FIG. 3A-3D, various concentrations
Experimental: RAW-Blue™ cells (mouse macrophage reporter cell line, Invivogen, San Diego CA) derived from RAW 264.7 macrophages were grown in a culture medium under the selection of Zeocin™. The cells stably express a secreted embryonic alkaline phosphatase (SEAP) gene inducible by NF-kB and AP-1 transcription factors. Upon stimulation, RAW-Blue™ cells activate NF-kB and AP-1 leading to the secretion of SEAP, which is detectable and measurable using QUANTI-Blue™, a SEAP detection medium (Invivogen). Supernatants (20 uL) after 24 hr reaction from treated RawBlue cells is added to QuantiBlue reagent (180 uL), and the readout of color reaction was done after 6 hrs. QUANTI-Blue™ is a colorimetric enzyme assay developed to determine the activity of any alkaline phosphatase present in a biological sample (supernatants) and was prepared according to manufacturer's instructions. RAW-Blue™ cells are resistant to Zeocin™ and G418.
A cell suspension of 550,000 RAW-blue cells/mL in fresh growth medium was prepared, and 180 μL of cell suspension (~100,000 cells) was added to each well of a Falcon flat-bottom 96-well plate (Becton Dickinson). After different incubation times, indicated dosages of LPS, bradykinin, angiotensin 1-7, neuropeptide FF, and S-protein alone or together with indicated dose-dependent OP were added to each well. The plates were incubated at 37° C. in a 5% CO2 incubator for 18-24 h. 180 μL of QUANTI-Blue™ solution was added to each well of a flat-bottom 96-well plate, followed by 20 μL of supernatant from stimulated RAW-blue cells. The plate was incubated for 30 min to 3 h at 37° C. and the SEAP levels were determined using a spectrophotometer at 620-655 nm. Each experiment was performed in triplicate.

[9] = test system: NFκB activation, nitric oxide, IL-6 and TNFα in primary or macrophage cell lines; assay: LPS/TLR ligand induced NFκB activation, nitric oxide and pro-inflammatory cytokines in macrophage cells; format: cell-based; conditions: macrophage and dendritic cells
From the text: Thus, there is evidence that the activation of Neu1 sialidase in complex with TLR-2,-3 and -4 receptors on the cell surface of macrophages is inhibited by the neuraminidase inhibitor OP. […] On the basis that Mas GPCR potentiates receptor biased-induced TLR transactivation via NMBR-Neu1-MMP9 crosstalk on the cell surface alveolar macrophages, then OP will inhibit the pro-inflammatory responses in the lungs and reduce the inflammatory process.

[10] = cited from earlier work
[11] = target: MMP9 (Homo sapiens, UniProt P14780); conditions: cited from earlier work
Chain of MMP9 (P14780 94-707, species assumed): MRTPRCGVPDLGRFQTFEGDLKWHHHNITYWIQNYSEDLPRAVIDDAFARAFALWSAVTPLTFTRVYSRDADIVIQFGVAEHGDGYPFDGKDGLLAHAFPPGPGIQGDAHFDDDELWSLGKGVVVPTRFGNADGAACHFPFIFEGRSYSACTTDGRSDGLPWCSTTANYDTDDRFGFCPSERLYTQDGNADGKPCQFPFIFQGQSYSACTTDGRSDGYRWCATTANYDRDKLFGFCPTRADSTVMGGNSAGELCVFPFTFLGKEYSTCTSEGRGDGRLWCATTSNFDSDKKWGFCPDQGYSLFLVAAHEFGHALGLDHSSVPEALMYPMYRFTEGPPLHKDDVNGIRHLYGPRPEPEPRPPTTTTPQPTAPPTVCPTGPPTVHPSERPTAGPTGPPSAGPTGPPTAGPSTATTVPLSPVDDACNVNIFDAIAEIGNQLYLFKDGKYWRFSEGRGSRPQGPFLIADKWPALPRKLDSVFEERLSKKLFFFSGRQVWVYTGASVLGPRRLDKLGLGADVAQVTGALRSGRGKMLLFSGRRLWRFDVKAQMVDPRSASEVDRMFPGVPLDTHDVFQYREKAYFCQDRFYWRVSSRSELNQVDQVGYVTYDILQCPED

[12] = target: MMP7 (Homo sapiens, UniProt P09237); conditions: read-out: IC50 for MMP7; cited from earlier work
Chain of MMP7 (P09237 95-267, species assumed): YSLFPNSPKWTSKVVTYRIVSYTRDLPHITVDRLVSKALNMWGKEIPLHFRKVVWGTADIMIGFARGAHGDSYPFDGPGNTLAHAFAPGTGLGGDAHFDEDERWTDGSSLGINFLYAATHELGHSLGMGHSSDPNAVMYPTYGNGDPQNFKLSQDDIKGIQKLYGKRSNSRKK

[13] = target: T3, neuraminidase 1 (Homo sapiens, UniProt Q99519); assay: Neu-1 activity in live PANC-1 cells stimulated with EGF; format: cell-based; conditions: FIG. 5; aspirin 1.6 mM-6.4 mM, 30 ng/mL EGF, 0.318 mM 4-MUNANA
T3 construct: endogenous in cells; host or cells: PANC-1
Experimental: Live PANC-1 cells were pre-treated with increasing concentrations of aspirin (1.6 mM-6.4 mM), followed by stimulation with 30 ng/mL of EGF to initiate Neu-1 activity. 0.318 mM 4-MUNANA substrate was added to quantify Neu-1 activity.

[14] = target: mammalian neuraminidase 1 (Homo sapiens, UniProt Q99519); assay: Aspirin with OP on mammalian neuraminidase 1
[15] = test system: Neu1; conditions: live macrophage cell lines and primary bone marrow macrophage cells from wild-type mice, not from Neu1-deficient mice; cited from earlier work
[16] = target: LPS induced sialidase activity in live BMA macrophage cells (Mus musculus, UniProt O35657); conditions: clopidogrel bisulfate 280 μM and 500 μM for 2 min, 5 μg/ml LPS, 400 μM OP
[17] = target: carboxylesterase (Homo sapiens, UniProt P23141); conditions: previously determined; cited from earlier work
Chain of carboxylesterase (P23141 18-567): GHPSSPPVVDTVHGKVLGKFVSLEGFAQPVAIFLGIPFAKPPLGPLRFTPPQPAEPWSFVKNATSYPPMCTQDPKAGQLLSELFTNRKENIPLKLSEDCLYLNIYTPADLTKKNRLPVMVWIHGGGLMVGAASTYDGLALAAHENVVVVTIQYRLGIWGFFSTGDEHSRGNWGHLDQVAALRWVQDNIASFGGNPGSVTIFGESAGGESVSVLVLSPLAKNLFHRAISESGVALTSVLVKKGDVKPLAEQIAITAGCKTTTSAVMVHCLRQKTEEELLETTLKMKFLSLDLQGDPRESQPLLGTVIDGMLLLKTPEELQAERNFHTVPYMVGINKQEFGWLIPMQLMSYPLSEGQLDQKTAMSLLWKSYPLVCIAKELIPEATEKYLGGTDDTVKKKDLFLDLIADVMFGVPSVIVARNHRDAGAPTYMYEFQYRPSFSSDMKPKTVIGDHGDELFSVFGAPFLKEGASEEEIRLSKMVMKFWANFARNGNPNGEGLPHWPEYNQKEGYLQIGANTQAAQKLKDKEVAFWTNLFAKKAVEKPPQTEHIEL

[18] = target: T4, human Neu3 sialidase (Homo sapiens, UniProt Q9UQ49); conditions: micromolar range; cited from earlier work
T4 sequence (Q9UQ49 1-428): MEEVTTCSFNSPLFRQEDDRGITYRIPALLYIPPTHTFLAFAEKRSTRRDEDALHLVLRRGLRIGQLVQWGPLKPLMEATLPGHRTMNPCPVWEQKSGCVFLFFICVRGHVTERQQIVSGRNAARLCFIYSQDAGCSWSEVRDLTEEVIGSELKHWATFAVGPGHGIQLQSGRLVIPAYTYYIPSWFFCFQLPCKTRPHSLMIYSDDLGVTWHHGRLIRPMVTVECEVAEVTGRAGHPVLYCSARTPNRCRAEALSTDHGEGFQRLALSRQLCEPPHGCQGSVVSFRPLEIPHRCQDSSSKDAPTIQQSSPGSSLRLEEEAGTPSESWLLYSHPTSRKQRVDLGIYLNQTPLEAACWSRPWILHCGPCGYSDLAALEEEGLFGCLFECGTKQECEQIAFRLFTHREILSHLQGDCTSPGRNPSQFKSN

[19] = test system: Neu3 sialidase; conditions: 2 mM, lysates from mature dendritic cells; cited from earlier work
[20] = test system: Neu1 sialidase; conditions: 2 mM, lysates from mature dendritic cells; cited from earlier work

CCC(CC)[C@H](NC(C)=O)[C@@H]1C[C@@H](C(=O)O)C[C@H]1N=C(N)N [BCX1827]
inhibition of the LPS-induced sialidase activity [1]: limited significant inhibition
inhibition of lipopolysaccharide (LPS) induced sialidase activity [2]: limited effect

N[C@@H](CS)C(=O)N1CCn2cc(-c3ccccc3)nc2[C@@H]1CC1CCCCC1 [BIM-46174]
inhibition of sialidase activity triggered by recombinant S protein and LPS [3]: inhibited
inhibition of sialidase activity associated with S-protein [3]: inhibited
inhibition of sialidase activity associated with S-protein (UK variant) [3]: inhibited

CC(=O)N[C@H]1[C@H]([C@H](O)[C@H](O)CO)OC(C(=O)O)=C[C@@H]1O [DANA, 2-deoxy-2,3-dehydro-N-acetylneuraminic acid]
inhibition of the LPS-induced sialidase activity [1]: limited significant inhibition
inhibition of lipopolysaccharide (LPS) induced sialidase activity [2]: limited effect

CNC(=O)[C@H](Cc1c[nH]c2ccccc12)NC(=O)[C@@H](CC(=O)NO)CC(C)C [Galardin]
pIC50 [4]: 7.57

CCN(CC)Cc1cc(C)c(N(Cc2ccccc2)S(=O)(=O)c2ccc(OC)cc2)c(C(=O)NO)c1 [MMP9 inhibitor]
inhibition of sialidase activity associated with S-protein [3]: inhibited
inhibition of sialidase activity associated with S-protein (UK variant) [3]: inhibited
pIC50 [5]: 6.95
pIC50 [6]: 5.98

CCOC(=O)C1=C[C@@H](OC(CC)CC)[C@H](NC(C)=O)[C@@H](N)C1.O=P(O)(O)O [OP, (3R,4R,5S)-4-acetylamino-5-amino-3-(1-ethylpropoxy)1-cyclohexene-1-carboxylic acid, ethyl ester, phosphate (1:1)]
inhibition of sialidase activity triggered by recombinant S protein and LPS [3]: blocked
inhibition of sialidase activity associated with S-protein [3]: inhibited
inhibition of sialidase activity associated with S-protein (UK variant) [3]: inhibited
inhibition of endotoxin LPS induced NFκB activation and production of nitric oxide and pro-inflammatory IL-6 and TNFα cytokines [7]: significantly inhibited
OP blockage of LPS-induced Neu1 sialidase activity after clopidogrel pretreatment ([1]; BMC-2 cells pretreated with anti-carboxylesterase agent clopidogrel): not affected
inhibition of the LPS-induced sialidase activity [1]: completely blocks
inhibition of S-protein triggered activity by SEAP reporter assay ([8]; FIG. 4C, S-protein 10 ug/mL, OP at indicated concentrations): significantly decreased; also recorded: inhibited sialidase activity in a dose dependent manner
block of TLR ligand induced NFkB activation, nitric oxide (NO) production and pro-inflammatory cytokines [9]: blocks
inhibition of sialidase (Neu1) activity associated with TLR ligand treated live macrophage cells [2]: most potent; also recorded: potent inhibitor
inhibition of sialidase (Neu1) activity associated with TLR ligand treated live macrophage cells ([2]; listed as oseltamivir phosphate): specifically inhibits
solubility in water [10]: soluble in water

C1CNCCN1 [PIPZ]
pIC50 [11]: 8.57
pIC50 [4]: 7.74
pIC50 [12]: 7.52
pIC50 [6]: 7.62

CC(=O)Oc1ccccc1C(=O)O [aspirin]
reduction in Neu-1 activity [13]: substantial reduction
inhibition of mammalian neuraminidase 1 by aspirin together with OP [14]: potentiates the ability of OP to inhibit mammalian neuraminidase 1

CC(C)CCC[C@@H](C)[C@H]1CC[C@H]2[C@@H]3CC=C4C[C@@H](O)CC[C@]4(C)[C@H]3CC[C@]12C [cholesterol]
induction of Neu1 activity [15]: induce Neu1 activity

COC(=O)[C@H](c1ccccc1Cl)N1CCc2sccc2C1 [clopidogrel]
effect on OP's capacity to inhibit LPS induced sialidase activity [16]: no effect
inhibition of the hydrolysis of OP by carboxylesterase [17]: ≤ 90%

CC(=O)N[C@H]1[C@H]([C@H](O)[C@H](O)CO)OC(C(=O)O)=C[C@@H]1N=C(N)N [zanamivir, 4-guanidino-Neu5Ac2en]
inhibition of human Neu3 sialidase [18]: significantly inhibited
inhibition of Neu3 sialidase activity [19]: completely inhibited
inhibition of the LPS-induced sialidase activity [1]: limited significant inhibition
inhibition of Neu1 sialidase activity [20]: completely inhibited
inhibition of lipopolysaccharide (LPS) induced sialidase activity [2]: limited effect

angiotensin 1-7 (DRVYIHP; Angiotensin 1-7; UniProt P01019 25-31, looked up)
induction of sialidase activity ([3]; FIG. 2A, agonist 20 μg/mL): induces Sialidase activity
expression of SEAP (reflective of NF-kB expression) [8]: triggered increased expression of SEAP

angiotensin-1 (DRVYIHPFHL; Angiotensin-1; UniProt P01019 25-34, looked up) [GPCR agonist]
induction of Neu1 activity [15]: induce Neu1 activity

angiotensin-2: GPCR agonist, printed as 'angiotensin-1 and -2' (DRVYIHPF; Angiotensin-2; UniProt P01019 25-32, looked up)
induction of Neu1 activity [15]: induce Neu1 activity

lysophosphatidic acid
induction of Neu1 activity [15]: induce Neu1 activity

neuropeptide FF (FLFQPQRF; ends and bridges not checked; UniProt O15130 69-76, looked up) [MAS agonist]
expression of SEAP (reflective of NF-kB expression) [8]: triggered increased expression of SEAP

thrombin
induction of Neu1 activity [15]: not
